Measurements as given in patent US5658500A, “Substituted naphthopyrans” (Transitions Optical, Inc., priority 1995, dated 1997).

Assays:
[1] = photochromic response of test squares on an optical bench (sensitivity, saturation optical density, bleach rate); assay type: physicochemical; conditions: for ΔOD @ SATURATION: UV exposure 20 minutes; for ΔOD @ SATURATION / ΔOD/MIN SENSITIVITY: 75° F. (23.9° C.); for ΔOD/MIN SENSITIVITY: first five seconds of UV exposure, expressed per minute; for Bleach Rate (T1/2): room temperature (75° F., 23.9° C.) after removal of activating light
Method: (§1) Testing was done with the photochromic naphthopyrans of the Examples incorporated or imbibed into test square polymerizates by one of two different methods. In Method I, the photochromic naphthopyrans of the Examples were incorporated into polymeric samples. The quantity of naphthopyran calculated to yield a 1.5 times 10^-3 molal solution was added to a flask containing 50 grams of a monomer blend of 4 parts ethoxylated bisphenol A dimethacrylate (BPA 2EO DMA), 1 part poly(ethyleneglycol) 600 dimethacrylate, and 0,033 weight percent 2,2'-azobis(2-methyl propionitrile) (AIBN). The naphthopyrans were dissolved into the monomer blend by stirring and gentle heating, if necessary. After a clear solution was obtained, it was poured into a flat sheet mold having the interior dimensions of 2.2 mm×6 inches (15.24 cm)×6 inches (15.24 cm). The mold was sealed and placed in a horizontal air flow, programmable oven set to increase the temperature from 40° C. to 95° C. over a 5 hour interval, hold the temperature at 95° C. for 3 hours and then lower it to 60° C. for at least 2 hours before the end of the curing cycle. After the molds were opened, the polymer sheets were cut using a diamond blade saw into 2 inch (5.1 centimeters) test squares.
(§2) In Method II, the photochromic naphthopyran was imbibed into test square polymerizates prepared from a diethylene glycol bis(allyl carbonate) composition. The test squares measured 1/8 inch (0.3 centimeters)×2 inches (5.1 centimeters)×2 inches (5.1 centimeters). In the imbibition process, the photochromic naphthopyran was dissolved to form a 10 weight percent solution in a 1:9 mixture of ethyl cellulose:toluene. The solution was then spin coated onto the test squares and allowed to dry. […] After cooling, the ethyl cellulose/toluene resin film was removed from the test squares by washing with acetone.
The photochromic test squares were tested for photochromic response rates on an optical bench. […] The bench was fitted with a 150 watt Xenon arc lamp, a remote controlled shutter, a copper sulfate bath acting as a heat sink for the arc lamp, a Schott WG-320 nm cut-off filter which removes short wavelength radiation; neutral density filter(s) and a sample holder in which the square to be tested was inserted. A collimated beam of light from a tungsten lamp was passed through the square at a small angle normal to the square. After passing through the square, the light from the tungsten lamp was directed through a photopic filter attached to a detector. The photopic filter passes wavelengths such that the detector mimics the response of the human eye. The output signals from the detector(s) were processed by a radiometer.
Change in optical density (ΔOD) was determined by inserting a test square in the bleached state into the sample holder, adjusting the transmittance scale to 100%, opening the shutter from the Xenon lamp to provide ultraviolet radiation to change the test square from the bleached state to an activated (i.e., darkened) state, measuring the transmittance in the activated state, and calculating the change in optical density according to the formula ΔOD=log(100/%Ta) where %Ta is the percent transmittance in the activated state and the logarithm is to the base 10.
(§3) The ΔOD/Min, which represents the sensitivity of the photochromic compound's response to UV light, was measured over the first five (5) seconds of UV exposure, then expressed on a per minute basis. The saturation optical density (OD) was taken under identical conditions as the ΔOD/Min, except UV exposure was continued for 20 minutes for the examples in Table 1. The lambda max reported in Table 1 is the wavelength in the visible spectrum at which the maximum absorption of the activated (colored) form of the photochromic compound in a diethylene glycol bis(allyl carbonate) composition occurs.

[2] = lambda max of the activated (colored) form in the visible spectrum; assay type: physicochemical; design: unit not given here; conditions: wavelength of maximum absorption of the activated form, in a diethylene glycol bis(allyl carbonate) composition
Method: as §1
as §2, with “dry. Samples were then heated in a hot-air oven at 135°-155°C. for a period of time sufficient to thermally transfer the photochromic into the test squares.” for “dry.”
as §3, with “occurs. The Bleach Rate (T 1/2) is the time interval in seconds for the absorbance of the activated form of the naphthopyran in the test squares to reach one half the highest absorbance at room temperature (75° F., 23.9° C.) after removal of the source of activating light.” for “occurs.”

[3] = Method II (imbibed) test square

SMILES	ΔOD @ SATURATION ([1]; Method I test square)	ΔOD/MIN SENSITIVITY ([1]; Method I test square)	Bleach Rate (T1/2) ([1]; Method I test square)	LAMBDA MAX (VISIBLE) [2]	ΔOD @ SATURATION [1, 3]	ΔOD/MIN SENSITIVITY [1, 3]	Bleach Rate (T1/2) [1, 3]
COC(=O)c1c2c(c3ccccc3c1O)OC(c1ccccc1)(c1ccc(N3CCOCC3)cc1)C=C2 (centres unmarked) [Example 1, 2-(4-morpholinophenyl)-2-phenyl-5-methoxycarbonyl-6-hydroxy-2H-naphtho[1,2-b]pyran]	1.36	0.64 ΔOD/MIN	3.22 min	511	–	–	–
COC(=O)c1c2c(c3ccccc3c1OC)OC(c1ccccc1)(c1ccc(N3CCOCC3)cc1)C=C2 (centres unmarked) [Example 2, 2-(4-morpholinophenyl)-2-phenyl-5-methoxycarbonyl-6-methoxy-2H-naphtho[1,2-b]pyran]	0.95	0.29 ΔOD/MIN	4.87 min	541	–	–	–
COC(=O)c1c2c(c3ccccc3c1OC(C)=O)OC(c1ccccc1)(c1ccc(N3CCOCC3)cc1)C=C2 (centres unmarked) [Example 3, 2-(4-morpholinophenyl)-2-phenyl-5-methoxycarbonyl-6-acetoxy-2H-naphtho[1,2-b]pyran]	0.31	0.24 ΔOD/MIN	1.47 min	545	–	–	–
CCn1c2ccccc2c2ccc(C3(c4ccccc4)C=Cc4c(C(=O)OC)c(OC(C)=O)c5ccccc5c4O3)cc21 (centres unmarked) [Example 4, 2-(9-ethylcarbazol-2-yl)-2-phenyl-5-methoxycarbonyl-6-acetoxy-2H-naphtho[1,2-b]pyran]	–	–	–	528	0.46	0.67 ΔOD/MIN	4.5 min
COC(=O)c1c2c(c3ccccc3c1OC(C)=O)OC(c1ccccc1)(c1ccc3c4ccccc4n(-c4ccccc4)c3c1)C=C2 (centres unmarked) [Example 5, 2-(9-phenylcarbazol-2-yl)-2-phenyl-5-methoxycarbonyl-6-acetoxy-2H-naphtho[1,2-b]pyran]	0.88	0.31 ΔOD/MIN	1.17 min	520	–	–	–
COC(=O)c1c2c(c3ccccc3c1OC(C)=O)OC(c1ccccc1)(c1ccc(N(C)C)cc1)C=C2 (centres unmarked) [Example 6, 2-(4-dimethylaminophenyl)-2-phenyl-5-methoxycarbonyl-6-acetoxy-2H-naphtho[1,2-b]pyran]	0.30	0.27 ΔOD/MIN	1.17 min	591	–	–	–
COC(=O)c1c2c(c3ccccc3c1C)OC(c1ccccc1)(c1ccc(N(C)C)cc1)C=C2 (centres unmarked) [Example 7, 2-(4-dimethylaminophenyl)-2-phenyl-5-methoxycarbonyl-6-methyl-2H-naphtho[1,2-b]pyran]	0.51	0.20 ΔOD/MIN	3.33 min	584	–	–	–
COC(=O)c1c2c(c3ccccc3c1OC(C)=O)OC(c1ccc(N(C)C)cc1)(c1ccc(N(C)C)cc1)C=C2 [Example 8, 2,2-bis (4-dimethylaminophenyl)-5-methoxycarbonyl-6-acetoxy-2H-naphtho[1,2-b]pyran]	0.07	0.16 ΔOD/MIN	0.317 min	618	–	–	–
